Results: patent publication US20250195521A1 (Revolution Medicines, Inc., priority 2020, published 2025)
Where two headings read alike, the source gives them in different places. Blank lines part the entries; values can stand above or below the compound they belong to.

Assays:
KRAS G12S = KRAS G12S (Homo sapiens (Human), UniProt P01116+P62937, G12S); assay: Ras-Raf disruption/FRET/MOA assay (BRAF RBD, Cyclophilin A); assay type: biochemical
Protocol: (§1) Compound is present in plate wells as a 10-point 3-fold dilution series starting at a final concentration of 30 μM. After incubation at 25° C. for 3 hours, a mixture of Anti-His Eu—W1024 and anti-GST allophycocyanin is then added to assay sample wells at final concentrations of 10 nM and 50 nM, respectively, and the reaction incubated for an additional 1.5 hours. […] Compounds that facilitate disruption of a Ras: RAF complex are identified as those eliciting a decrease in the TR-FRET ratio relative to DMSO control wells.
(§2) Disruption of B-Raf Ras-Binding Domain (BRAF^RBD) Interaction with K-Ras by Compounds of the Invention (Also Called a FRET Assay or an MOA Assay)
(§3) Note—The following protocol describes a procedure for monitoring disruption of K-Ras G12C (GMP-PNP) binding to BRAF^RBD by a compound of the invention. This protocol may also be executed substituting other Ras proteins or nucleotides.
(§4) The purpose of this biochemical assay was to measure the ability of test compounds to facilitate ternary complex formation between a nucleotide-loaded K-Ras isoform and Cyclophilin A; the resulting ternary complex disrupts binding to a BRAF^RBD construct, inhibiting K-Ras signaling through a RAF effector. Data is reported as IC50 values.
(§5) In assay buffer containing 25 mM HEPES pH 7.3, 0.002% Tween20, 0.1% BSA, 100 mM NaCl and 5 mM MgCl2, tagless Cyclophilin A, His6-K-Ras-GMPPNP, and GST-BRAF^RBD were combined in a 384-well assay plate at final concentrations of 25 μM, 12.5 nM and 50 nM, respectively. Compound was present in plate wells as a 10-point 3-fold dilution series starting at a final concentration of 30 μM. After incubation at 25° C. for 3 hours, a mixture of Anti-His Eu—W1024 and anti-GST allophycocyanin was then added to assay sample wells at final concentrations of 10 nM and 50 nM, respectively, and the reaction incubated for an additional 1.5 hours. […] Compounds that facilitate disruption of a K-Ras: RAF complex were identified as those eliciting a decrease in the TR-FRET ratio relative to DMSO control wells.

KRAS G12V = KRAS G12V (Homo sapiens (Human), UniProt P01116+P62937, G12V); assay: as above; assay type: biochemical
Protocol: as §1, §2, §3, §4, §5

KRAS G13D = KRAS G13D (Homo sapiens (Human), UniProt P01116+P62937, G13D); assay: as above; assay type: biochemical
Protocol: as §1, §2, §3, §4, §5

KRAS WT = KRAS WT (Homo sapiens (Human), UniProt P01116+P62937); assay: as above; assay type: biochemical
Protocol: as §1, §2, §3, §4, §5

KRAS G12D = KRAS G12D (Homo sapiens (Human), UniProt P01116+P62937, G12D); assay: as above; assay type: biochemical
Protocol: as §1, §2, §3, §4, §5

NRAS G12C = NRAS G12C (Homo sapiens (Human), UniProt P01111+P62937, G12C); assay: as above; assay type: biochemical
Protocol: as §1, §2, §3, §4, §5

KRAS G13C = KRAS G13C (Homo sapiens (Human), UniProt P01116+P62937, G13C); assay: as above; assay type: biochemical; settings: KRAS G13C FRET IC50
Protocol: as §1, §2, §3, §4, §5

[1] = tested on: Capan-1 cells (K-Ras G12V); assay: CellTiter-Glo cell viability, Capan-1; assay type: cell-based, human; settings: Homo sapiens, CAPAN-1, 120 h, read-out: Capan-1 Cell Viability IC50
Protocol: Note—The following protocol describes a procedure for monitoring cell viability of K-Ras mutant cancer cell lines in response to a compound of the invention. Other RAS isoforms may be employed, though the number of cells to be seeded will vary based on cell line used.
Test compounds (132.5 nl) were directly dispensed into the assay plates containing cells. […] On day 5, assay plates and their contents were equilibrated to room temperature for approximately 30 minutes. […] Luminescence was measured using the PerkinElmer Enspire. Data were normalized by the following: (Sample signal/Avg. DMSO)*100. The data were fit using a four-parameter logistic fit.

[2] = tested on: K-Ras G12C (NCI-H358 cells); assay: Potency assay: pERK in NCI-H358 cells; assay type: cell-based, human; settings: read-out: pERK EC50 (H358 KRAS G12C)
Outline: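 Cells plated the day before were exposed for 4 h at 37° C, 5% CO2 to a 10-point, 3-fold DMSO dilution series (10 mM top stock), in duplicate. Phospho-ERK was read by AlphaLISA SureFire Ultra or by In-Cell Western with DRAQ5 DNA stain, and IC50 came from a 4-parameter sigmoidal fit.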

NCI-H358 (K-Ras G12C) = assay: CellTiter-Glo cell viability assay, NCI-H358; assay type: cell-based, human
Outline: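 NCI-H358 (K-Ras G12C) cells treated with compound dispensed directly into plates. CellTiter-Glo luminescence read on day 5 after ~30 min equilibration to room temperature. Signal normalised to DMSO average ×100, then fitted with a four-parameter logistic model.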

[3] = Homo sapiens, NCI-H358 cells, 4 hours
[4] = read-out: KRAS G13D FRET data IC50
[5] = read-out: KRAS WT FRET data IC50
[6] = Homo sapiens, NCI-H358, 120 h, 5-day treatment, read-out: H358 Cell Viability assay data (K-Ras G12C, IC50)
[7] = read-out: H358 Cell Viability assay data (K-Ras G12C, IC50), 5-day treatment

Sequence of KRAS WT (P01116 other isoform, or with tags, fused parts or gaps): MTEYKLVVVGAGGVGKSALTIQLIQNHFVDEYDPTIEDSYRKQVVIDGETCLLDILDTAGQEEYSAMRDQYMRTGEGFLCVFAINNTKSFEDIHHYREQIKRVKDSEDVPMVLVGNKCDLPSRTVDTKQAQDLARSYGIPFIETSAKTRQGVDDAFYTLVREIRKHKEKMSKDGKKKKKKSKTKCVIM
Sequence of KRAS WT (P62937 whole entry): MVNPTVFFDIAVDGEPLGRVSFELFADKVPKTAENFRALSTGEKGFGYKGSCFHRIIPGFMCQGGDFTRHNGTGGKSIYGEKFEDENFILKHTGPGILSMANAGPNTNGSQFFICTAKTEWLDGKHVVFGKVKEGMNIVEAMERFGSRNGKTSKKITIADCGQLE
Sequence of KRAS G13D (P01116 other isoform, or with tags, fused parts or gaps G13D): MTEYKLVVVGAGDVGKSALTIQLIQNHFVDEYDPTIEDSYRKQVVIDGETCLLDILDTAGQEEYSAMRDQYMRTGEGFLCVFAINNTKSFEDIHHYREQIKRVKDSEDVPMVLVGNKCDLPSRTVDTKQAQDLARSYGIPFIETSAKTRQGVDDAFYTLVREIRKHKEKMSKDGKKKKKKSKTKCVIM
Sequence of KRAS G13D (P62937 whole entry): as the sequence (P62937 whole entry) above
Sequence of KRAS G12V (P01116 other isoform, or with tags, fused parts or gaps G12V): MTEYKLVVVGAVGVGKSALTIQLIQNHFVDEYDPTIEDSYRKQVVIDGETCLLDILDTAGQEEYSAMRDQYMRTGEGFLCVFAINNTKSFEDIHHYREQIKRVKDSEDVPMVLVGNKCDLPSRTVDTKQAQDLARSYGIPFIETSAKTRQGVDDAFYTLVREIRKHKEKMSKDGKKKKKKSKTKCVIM
Sequence of KRAS G12V (P62937 whole entry): as the sequence (P62937 whole entry) above
Sequence of KRAS G12S (P01116 other isoform, or with tags, fused parts or gaps G12S): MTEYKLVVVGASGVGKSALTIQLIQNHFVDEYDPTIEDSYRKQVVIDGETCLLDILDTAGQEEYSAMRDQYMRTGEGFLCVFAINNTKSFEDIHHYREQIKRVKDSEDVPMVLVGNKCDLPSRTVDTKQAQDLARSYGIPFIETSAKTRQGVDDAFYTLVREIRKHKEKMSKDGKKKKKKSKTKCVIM
Sequence of KRAS G12S (P62937 whole entry): as the sequence (P62937 whole entry) above
Sequence of KRAS G12D (P01116 other isoform, or with tags, fused parts or gaps G12D): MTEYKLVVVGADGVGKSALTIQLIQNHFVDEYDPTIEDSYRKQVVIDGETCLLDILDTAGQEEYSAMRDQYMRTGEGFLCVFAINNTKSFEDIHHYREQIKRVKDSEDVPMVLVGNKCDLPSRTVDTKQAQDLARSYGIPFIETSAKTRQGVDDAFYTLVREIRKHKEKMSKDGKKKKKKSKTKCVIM
Sequence of KRAS G12D (P62937 whole entry): as the sequence (P62937 whole entry) above
Sequence of NRAS G12C (P01111 whole entry G12C): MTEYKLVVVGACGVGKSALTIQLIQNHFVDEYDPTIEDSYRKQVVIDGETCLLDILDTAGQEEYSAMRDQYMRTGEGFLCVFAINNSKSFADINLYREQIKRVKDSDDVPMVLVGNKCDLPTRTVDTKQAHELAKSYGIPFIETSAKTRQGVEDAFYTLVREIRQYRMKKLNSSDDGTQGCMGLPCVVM
Sequence of NRAS G12C (P62937 whole entry): as the sequence (P62937 whole entry) above
Sequence of KRAS G13C (P01116 other isoform, or with tags, fused parts or gaps G13C): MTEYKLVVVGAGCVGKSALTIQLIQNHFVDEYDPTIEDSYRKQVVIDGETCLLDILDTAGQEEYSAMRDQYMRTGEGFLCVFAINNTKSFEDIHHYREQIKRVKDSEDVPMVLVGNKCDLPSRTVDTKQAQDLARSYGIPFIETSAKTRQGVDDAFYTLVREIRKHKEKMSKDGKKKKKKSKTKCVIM
Sequence of KRAS G13C (P62937 whole entry): as the sequence (P62937 whole entry) above

SMILES: CCn1c(-c2cccnc2[C@H](C)OC)c2c3cc(ccc31)-c1cc(O)cc(c1)C[C@H](NS(=O)(=O)c1ccc(OC)cc1OC)C(=O)N1CCC[C@H](N1)C(=O)OCC(C)(C)C2 [Compound A198]
IC50 (KRAS G12S; KRAS G12S FRET IC50): > 10000 nM
IC50 (KRAS G12V; KRAS G12V FRET IC50): > 10000 nM
IC50 (KRAS G13D; KRAS G13D FRET data IC50): > 10000 nM
IC50 (KRAS WT; KRAS WT FRET data IC50): > 10000 nM
IC50 (KRAS G12D; KRAS G12D FRET IC50): > 10000 nM
IC50 (NRAS G12C; NRAS G12C FRET data IC50): > 10000 nM
IC50 (KRAS G13C): > 10000 nM
IC50 [1]: > 10000 nM

SMILES: CCn1c(-c2cccnc2[C@H](C)OC)c2c3cc(ccc31)-c1cc(O)cc(c1)C[C@H](NC(=O)[C@H](C(C)C)N(C)C(=O)[C@@H]1CCN(C(=O)OC)[C@@H]1c1ccccc1)C(=O)N1CCC[C@H](N1)C(=O)OCC(C)(C)C2 [Compound A501]
EC50 [2, 3]: < 5000 nM
IC50 (KRAS G13D; [4]): 10 to 100 nM
IC50 (KRAS WT; [5]): 10 to 100 nM
IC50 (KRAS G12D; read-out: KRAS G12D FRET IC50): 10 to 100 nM
IC50 ([1]; K-Ras G12V, 5-day treatment): 100 to 1000 nM

SMILES: CCn1c(-c2cccnc2[C@H](C)OC)c2c3cc(ccc31)-c1csc(n1)C[C@H](NC(=O)[C@H](C(C)C)N(C)C(=O)N1CCN3CCOC[C@H]3C1)C(=O)N1CCC[C@H](N1)C(=O)OCC(C)(C)C2 [Compound A548]
IC50 ([1]; K-Ras G12V, 5-day treatment): 10 to 100 nM
IC50 (NCI-H358 (K-Ras G12C); [6]): 0.1 to 1 µM

SMILES: CCn1c(-c2cccnc2[C@H](C)OC)c2c3cc(ccc31)-c1cc(O)cc(c1)C[C@H](NS(=O)(=O)c1cn(C)c(C)n1)C(=O)N1CCC[C@H](N1)C(=O)OCC(C)(C)C2 [Compound A197]
EC50 [2, 3]: < 5000 nM
IC50 (KRAS G12S; read-out: KRAS G12S FRET IC50): > 10000 nM
IC50 (KRAS G12V; read-out: KRAS G12V FRET IC50): > 10000 nM
IC50 (KRAS G13D; [4]): > 10000 nM
IC50 (KRAS G12D; read-out: KRAS G12D FRET IC50): > 10000 nM
IC50 ([1]; K-Ras G12V, 5-day treatment): > 10000 nM

SMILES: CCn1c(-c2cccnc2[C@H](C)OC)c2c3cc(ccc31)-c1cc(O)cc(c1)C[C@H](NC(=O)[C@H](C(C)C)N(C)C(=O)[C@@H]1CN(C(=O)OC)C[C@@H]1C)C(=O)N1CCC[C@H](N1)C(=O)OCC(C)(C)C2 [Compound A325]
IC50 (KRAS G12S; read-out: KRAS G12S FRET IC50): 10 to 100 nM
IC50 (KRAS G13D; [4]): 10 to 100 nM
IC50 (KRAS WT; [5]): 10 to 100 nM
IC50 (KRAS G12D; read-out: KRAS G12D FRET IC50): 10 to 100 nM
IC50 ([1]; K-Ras G12V, 5-day treatment): 10 to 100 nM

SMILES: CCn1c(-c2cccnc2[C@H](C)OC)c2c3cc(ccc31)-c1cc(O)cc(c1)C[C@H](NS(=O)(=O)CC1CC1)C(=O)N1CCC[C@H](N1)C(=O)OCC(C)(C)C2 [Compound A200]
IC50 (KRAS G12S; read-out: KRAS G12S FRET IC50): > 10000 nM
IC50 (KRAS G12V; read-out: KRAS G12V FRET IC50): > 10000 nM
IC50 (KRAS G13D; [4]): > 10000 nM
IC50 (KRAS G12D; read-out: KRAS G12D FRET IC50): > 10000 nM
IC50 [1]: 1000 to 10000 nM

SMILES: CC#CC(=O)N1CC[C@H](C(=O)N(C)[C@H](C(=O)N[C@H]2Cc3cc(O)cc(c3)-c3ccc4c(c3)c(c(-c3cccnc3[C@H](C)OC)n4CC)CC(C)(C)COC(=O)[C@@H]3CCCN(N3)C2=O)C(C)C)C1 [Compound A145, (2S)-2-{1-[(3S)-1-(but-2-ynoyl)pyrrolidin-3-yl]-N-methylformamido}-N-[(8S,14S,20M)-22-ethyl-4-hydroxy-21-{2-[(1S)-1-methoxyethyl]pyridin-3-yl}-18, 18-dimethyl-9,15-dioxo-16-oxa-10,22,28-triazapentacyclo [18.5.2.1^2,6.1^10,14.0^23,27]nonacosa-1 (26),2,4,6 (29),20,23 (27),24-heptaen-8-yl]-3-methylbutanamide]
EC50 ([2]; Homo sapiens, NCI-H358, 4 h): < 5000 nM
IC50 (NCI-H358 (K-Ras G12C); Homo sapiens, NCI-H358, 120 h, read-out: H358 Cell Viability assay data (K-Ras G12C, IC50, uM), 5-day treatment): < 0.01 µM
IC50 (NCI-H358 (K-Ras G12C); [7]): 0.01 to 0.1 µM

SMILES: CCn1c(-c2cnccc2COC)c2c3cc(ccc31)-c1cc(O)cc(c1)C[C@H](NC(=O)[C@H](C(C)C)N(C)C(=O)CN1CCOCC1)C(=O)N1CCC[C@H](N1)C(=O)OCC(C)(C)C2 [Compound A65]
EC50 [2, 3]: < 5000 nM
IC50 (NCI-H358 (K-Ras G12C); [6]): 0.1 to 1 µM

SMILES: C=CC(=O)N1CC[C@H](C(=O)N(C)[C@H](C(=O)N[C@H]2Cc3cc(O)cc(c3)-c3ccc4c(c3)c(c(-c3ccccc3CCOC)n4C(C)(C)C#N)CC(C)(C)COC(=O)[C@@H]3CCCN(N3)C2=O)C(C)C)C1 [Compound A34]
EC50 ([2]; NCI-H358 cells, 4 hours): < 5000 nM
IC50 (NCI-H358 (K-Ras G12C); 5-day treatment, read-out: H358 Cell Viability assay data (K-Ras G12C, IC50)): 0.01 to 0.1 µM

More lines, main results first:

EC50 [2, 3]: < 5000 nM
IC50 (NCI-H358 (K-Ras G12C); [6]): < 0.01 µM
SMILES: CCn1c(-c2cccnc2[C@H](C)OC)c2c3cc(ccc31)-c1csc(n1)C[C@H](NC(=O)[C@H](C(C)C)N(C)C(=O)N1CC[C@@H]1CN(C)C)C(=O)N1CCC[C@H](N1)C(=O)OCC(C)(C)C2 [Compound A502]
IC50 ([1]; K-Ras G12V, 5-day treatment): 100 to 1000 nM

IC50 (KRAS G13D; [4]): 10 to 100 nM
IC50 (NRAS G12C; read-out: NRAS G12C FRET data IC50): 100 to 1000 nM
SMILES: CCn1c(-c2cnccc2COC)c2c3cc(ccc31)-c1cc(O)cc(c1)C[C@H](NC(=O)[C@H](C(C)C)N(C)C(=O)[C@H]1CCN(C(C)C)C1)C(=O)N1CCC[C@H](N1)C(=O)OCC(C)(C)C2 [Compound A41]

EC50 [2, 3]: < 5000 nM
IC50 (NCI-H358 (K-Ras G12C); [6]): 0.01 to 0.1 µM
SMILES: CCn1c(-c2cnccc2COC)c2c3cc(ccc31)-c1cc(O)cc(c1)C[C@H](NC(=O)[C@H](C(C)C)N(C)CC(F)(F)F)C(=O)N1CCC[C@H](N1)C(=O)OCC(C)(C)C2 [Compound A77]

EC50 ([2]; Homo sapiens, NCI-H358, 4 h): < 5000 nM
IC50 (NCI-H358 (K-Ras G12C); [7]): 0.1 to 1 µM
SMILES: CC#CC(=O)N1CC[C@H](C(=O)N(C)[C@@H](C(=O)N[C@H]2Cc3cc(O)cc(c3)-c3ccc4c(c3)c(c(-c3cccnc3[C@H](C)OC)n4CC)CC(C)(C)COC(=O)[C@@H]3CCCN(N3)C2=O)C(C)C)C1 [Compound A199]

IC50 (KRAS G13D; [4]): 100 to 1000 nM
SMILES: CCn1c(-c2cccnc2COC)c2c3cc(ccc31)-c1cc(O)cc(c1)C[C@H](NC(=O)[C@H](C(C)C)N(C)C(=O)[C@H](N)CCCNC(=N)N)C(=O)N1CCC[C@H](N1)C(=O)OCC(C)(C)C2 [Compound A48]
